Five compounds from US20170008888A1 (KYORIN PHARMACEUTICAL CO., LTD., priority 2014, published 2017) can be followed below.

pKd: −log10 of the molar value. Where two headings read alike, the source gives them in different places. Bounds are passed on as bounds.

Broadly, the Kd is the constant that tells how readily two partners part at equilibrium. Lower therefore signals a tighter complex. The term pKd denotes −log10 of the Kd, conventionally taken in molar units.

One assay concerns human PBMCs. The assay is described as follows: Cytokine response by primary human PBMCs stimulated with PMA/ionomycin or LPS. The format is cell-based. The conditions noted are these: PBMC. The protocol:
Freshly isolated human PBMCs were purchased from Astarte Biologics (Redmond, Wash.). Cells were seeded at 2e6 cells/ml in RPMI 1640 (Life Technologies, Grand Island, N.Y.) containing 10% (v/v) charcoal-dextran treated, heat inactivated FBS (Omega Scientific, Tarzana, Calif.), 0.05 mM 2-Mercaptoethanol (Sigma-Aldrich, St. Louis, Mo.), and 1×Pen/Strep Amphotericin B (Lonza, Allendale, N.J.). Cells were pre-treated with 0.1% DMSO or with test compounds for 1 h at 37° C. in a humidified atmosphere at 5% CO2. Compounds were tested at 10 μM down by ⅕ in a 4-point serial dilution series. Cells were then stimulated with either 50 ng/ml phorbol 12-myristate 13-acetate (PMA)(Sigma-Aldrich)+1 μg/ml ionomycin (Life Technologies) or with 100 ng/ml LPS from E. coli 0111:B4 (EMD Millipore, Billerica, Mass.) for 20 h at 37° C. in a humidified atmosphere at 5% CO2. Supernatant was collected and analyzed using the Bio-Plex Pro Human Cytokine 17-Plex Panel (Bio-Rad Laboratories, Hercules, Calif.) as per manufacturer's protocols. Magnetic beads were read on the Bio-Plex MAGPIX multiplex reader instrument using the accompanying xPONENT 4.2 acquisition software (Bio-Rad Laboratories). Data were analyzed via the Bio-Plex Manager software v6.1 (Bio-Rad Laboratories).

Assay [1] has as its target T1, panel of 40 bromodomain-containing proteins (Homo sapiens, UniProt Q09472).
T1 construct: T7 phage strains displaying bromodomains were grown in parallel; made in house; host or cells: E. coli host derived from BL21, infected with T7 phage
The assay is described as follows: Bromodomain binding assay (T7 phage, qPCR): further proteins of the panel. The conditions noted are these: EP300. The protocol: (§1) T7 phage strains displaying bromodomains were grown in parallel in 24-well blocks in an E. coli host derived from the BL21 strain. E. coli were grown to log-phase and infected with T7 phage from a frozen stock (multiplicity of infection=0.4) and incubated with shaking at 32° C. until lysis (90-150 minutes). The lysates were centrifuged (5,000×g) and filtered (0.2 μm) to remove cell debris. […] The liganded beads were blocked with excess biotin and washed with blocking buffer (SeaBlock (Pierce), 1% BSA, 0.05 Tween 20, 1 mM DTT) to remove unbound ligand and to reduce non-specific phage binding. […] Test compounds (T62 and 46) were prepared as 1000× stocks in 100% DMSO and subsequently diluted 1:10 in monoethylene glycol (MEG) to create stocks at 100× the screening concentration (resulting stock solution is 10% DMSO/90% MEG). The compounds were then diluted directly into the assays such that the final concentration of DMSO and MEG were 0.1% and 0.9%, respectively. All reactions were performed in polystyrene 96-well plates in a final volume of 0.135 ml. […] The bromodomain concentration in the eluates was measured by qPCR. Compounds were assayed for binding activity against a panel of 40 bromodomain-containing proteins.
For orientation: In qPCR the cycle at which signal appears reflects the starting amount.

The target in assay [2] is T2, panel of 40 bromodomain-containing proteins (Homo sapiens, UniProt Q92793).
T2 construct: T7 phage strains displaying bromodomains were grown in parallel; made in house; host or cells: E. coli host derived from BL21, infected with T7 phage
T2 sequence (Q92793 1081-1197): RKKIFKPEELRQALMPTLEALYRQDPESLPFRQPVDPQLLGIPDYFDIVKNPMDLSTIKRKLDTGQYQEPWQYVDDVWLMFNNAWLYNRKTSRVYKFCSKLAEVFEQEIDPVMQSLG
The description is as above. The settings on record: CREBBP. As to the method: as §1

The target in another assay is T3, BRDT (Homo sapiens, UniProt Q58F21).
T3 construct: read out by qPCR of the phage DNA
Kind of assay: Bromodomain binding assay: BRDT. The protocol:
as §1

The next assay addresses T4, BRD2 (Homo sapiens, UniProt P25440).
T4 construct: read out by qPCR of the phage DNA
Kind of assay: Bromodomain binding assay: BRD2. As to the method:
as §1

For the next assay, the target named is T5, WDR9 (Homo sapiens, UniProt Q9NSI6).
T5 construct: made in house; host or cells: E. coli host derived from the BL21 strain (T7 phage lysate)
T5 sequence (Q9NSI6 1313-1418 limits assumed): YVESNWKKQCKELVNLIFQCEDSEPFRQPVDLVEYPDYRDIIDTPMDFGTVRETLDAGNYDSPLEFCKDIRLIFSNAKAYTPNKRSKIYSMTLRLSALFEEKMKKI
Kind of assay: Bromodomain binding assay: WDR9. The protocol:
as §1

Assay [3] concerns Asthmatic lung fibroblasts. Kind of assay: TGF-β-induced fibrotic response (α-SMA expression) in asthmatic lung fibroblasts. The format is cell-based. The conditions noted are these: Homo sapiens, Fibroblast; 2 ng/ml TGF-β1, 48 h; Western blot; read-out: Inhibition of α-SMA expression, EC50 (μM), Asthmatic lung fibroblasts. As to the method: Nontransformed, human fetal lung fibroblasts (HFL-1) were obtained from ATCC (Manassas, Va.) and maintained in F12K media containing 10% (v/v) charcoal-dextran treated, heat inactivated FBS (Omega Scientific, Tarzana, Calif.). Primary lung fibroblasts isolated from a patient diagnosed with asthma were obtained from Lonza (Allendale, N.J.) and maintained in FGM-2 fibroblast growth medium (Lonza). Cells were seeded at a density to provide 50-60% confluence after an overnight incubation at 37° C. in a humidified atmosphere at 5% CO2. […] Protein content was determined using the Bio-Rad Dc Protein kit (Bio-Rad Laboratories, Hercules, Calif.), and normalized prior to adding an equal volume of 2× Laemmli sample buffer (Sigma). Proteins in the whole cell lysates were resolved via SDS-PAGE gel electrophoresis, and α-SMA was detected via Western blot analysis using a rabbit anti-human α-SMA polyclonal antibody (Abcam, Cambridge, Mass.). α-SMA signal was normalized to the signal of β-actin as detected using mouse anti-human […] antibody (Cell Signaling Technology). DyLight 680 and 800 conjugated secondary antibodies were used and the infrared signals were detected using the Odyssey Imaging System (LI-COR Biotechnology, Lincoln, Nebr.).
For orientation: Immunoblotting shows a protein as a band on a membrane.

Setting [4] is: 100 ng/ml LPS 20 h, read-out: EC50 (μM) under LPS stimulation, G-CSF.
The mark [5] stands for this setting: 100 ng/ml LPS 20 h, read-out: EC50 (μM) under LPS stimulation, GM-CSF.
Where [6] appears, read: 100 ng/ml LPS 20 h, read-out: EC50 (μM) under LPS stimulation, IFNγ.
Where [7] appears, read: 100 ng/ml LPS 20 h, read-out: EC50 (μM) under LPS stimulation, IL-1β.
Setting [8] is: 100 ng/ml LPS 20 h, read-out: EC50 (μM) under LPS stimulation, IL-2.
The mark [9] stands for this setting: 100 ng/ml LPS 20 h, read-out: EC50 (μM) under LPS stimulation, IL-4.
Setting [10] is: 100 ng/ml LPS 20 h, read-out: EC50 (μM) under LPS stimulation, IL-6.
Setting [11] is: 100 ng/ml LPS 20 h, read-out: EC50 (μM) under LPS stimulation, IL-7.
Setting [12] is: 100 ng/ml LPS 20 h, read-out: EC50 (μM) under LPS stimulation, IL-10.
The mark [13] stands for this setting: 100 ng/ml LPS 20 h, read-out: EC50 (μM) under LPS stimulation, IL-12.
[14] abbreviates: 100 ng/ml LPS 20 h, read-out: EC50 (μM) under LPS stimulation, IL-13.
The mark [15] stands for this setting: 100 ng/ml LPS 20 h, read-out: EC50 (μM) under LPS stimulation, IL-17A.
[16] abbreviates: 100 ng/ml LPS 20 h, read-out: EC50 (μM) under LPS stimulation, MCP-1.
[17] abbreviates: 100 ng/ml LPS 20 h, read-out: EC50 (μM) under LPS stimulation, TNFα.
[18] abbreviates: PMA/ionomycin 20 h, read-out: EC50 (μM) under PMA/ionomycin stimulation, GM-CSF.
Where [19] appears, read: PMA/ionomycin 20 h, read-out: EC50 (μM) under PMA/ionomycin stimulation, IL-4.
[20] abbreviates: PMA/ionomycin 20 h, read-out: EC50 (μM) under PMA/ionomycin stimulation, IL-5.
Setting [21] is: PMA/ionomycin 20 h, read-out: EC50 (μM) under PMA/ionomycin stimulation, IL-6.
The mark [22] stands for this setting: PMA/ionomycin 20 h, read-out: EC50 (μM) under PMA/ionomycin stimulation, IL-7.
Setting [23] is: PMA/ionomycin 20 h, read-out: EC50 (μM) under PMA/ionomycin stimulation, IL-10.
The mark [24] stands for this setting: PMA/ionomycin 20 h, read-out: EC50 (μM) under PMA/ionomycin stimulation, IL-12.
Setting [25] is: PMA/ionomycin 20 h, read-out: EC50 (μM) under PMA/ionomycin stimulation, IL-13.
[26] abbreviates: PMA/ionomycin 20 h, read-out: EC50 (μM) under PMA/ionomycin stimulation, IL-17A.
Setting [27] is: PMA/ionomycin 20 h, read-out: EC50 (μM) under PMA/ionomycin stimulation, MCP-1.
The mark [28] stands for this setting: PMA/ionomycin 20 h, read-out: EC50 (μM) under PMA/ionomycin stimulation, MIP-1β.
Setting [29] is: PMA/ionomycin 20 h, read-out: EC50 (μM) under PMA/ionomycin stimulation, TNFα.

T4 sequence (P25440 whole entry): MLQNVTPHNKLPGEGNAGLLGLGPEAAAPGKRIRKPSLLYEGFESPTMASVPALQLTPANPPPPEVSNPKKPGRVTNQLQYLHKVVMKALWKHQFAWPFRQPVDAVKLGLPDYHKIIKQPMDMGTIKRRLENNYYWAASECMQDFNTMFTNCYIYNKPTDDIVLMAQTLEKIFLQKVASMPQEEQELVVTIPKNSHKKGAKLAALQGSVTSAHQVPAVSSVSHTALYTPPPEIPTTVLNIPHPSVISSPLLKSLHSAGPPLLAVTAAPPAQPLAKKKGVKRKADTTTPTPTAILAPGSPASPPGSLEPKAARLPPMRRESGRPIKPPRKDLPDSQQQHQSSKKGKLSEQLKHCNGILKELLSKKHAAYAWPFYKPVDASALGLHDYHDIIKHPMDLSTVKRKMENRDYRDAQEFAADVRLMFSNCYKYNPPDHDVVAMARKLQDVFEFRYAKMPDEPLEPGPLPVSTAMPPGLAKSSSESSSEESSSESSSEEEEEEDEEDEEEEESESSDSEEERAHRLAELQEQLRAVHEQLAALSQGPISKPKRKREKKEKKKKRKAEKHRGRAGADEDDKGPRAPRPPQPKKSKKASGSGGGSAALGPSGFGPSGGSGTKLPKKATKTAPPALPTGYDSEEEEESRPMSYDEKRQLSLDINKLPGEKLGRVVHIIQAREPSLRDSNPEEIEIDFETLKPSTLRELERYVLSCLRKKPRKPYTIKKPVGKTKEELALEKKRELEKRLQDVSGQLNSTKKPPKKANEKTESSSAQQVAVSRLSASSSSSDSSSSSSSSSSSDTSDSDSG
T1 sequence (Q09472 1045-1161): as the sequence (Q92793 1081-1197) above, with R1K, N51S, V77I, F97Y, A102S counted along it

With `CCOc1cc(C(=O)N2CCCN(C)CC2)ccc1Nc1cc2c(cn1)N(C)C(=O)c1ccccc1N2C` [Compound 8], the EC50 with human PBMCs (setting [4]) worked out at 4.95 µM; with human PBMCs (setting [5]), 4.04 µM; with human PBMCs (setting [6]) it was 1.67 µM; in the assay on human PBMCs (setting [7]) it was 3.92 µM; in the assay with human PBMCs (setting [8]) it was 7.93 µM; in the assay on human PBMCs (setting [9]), 10.9 µM. The EC50 in the assay with human PBMCs (setting [10]) is 4.49 µM; with human PBMCs (setting [11]) it was 9.89 µM; with human PBMCs (setting [12]), 1.09 µM; with human PBMCs (setting [13]), 1.95 µM; in the assay on human PBMCs (setting [14]), 6.9 µM; in the assay on human PBMCs (setting [15]), more than 10 µM. For the same compound, the EC50 with human PBMCs (setting [16]) was 0.237 µM; with human PBMCs (setting [17]) it was 0.304 µM; in the assay on human PBMCs (setting [18]) it was 4.67 µM; in the assay with human PBMCs (setting [19]), more than 10 µM; in the assay with human PBMCs (setting [20]), 3.88 µM; in the assay with human PBMCs (setting [21]) it was 2.35 µM. Moreover, the EC50 in the assay on human PBMCs (setting [22]) was more than 10 µM; with human PBMCs (setting [23]), 0.627 µM; in the assay on human PBMCs (setting [24]) it was more than 10 µM; in the assay with human PBMCs (setting [25]) it was 4.22 µM; in the assay on human PBMCs (setting [26]) it was more than 10 µM; with human PBMCs (setting [27]), 0.401 µM. Also, the EC50 with human PBMCs (setting [28]) amounted to 4.28 µM; in the assay on human PBMCs (setting [29]), 8.17 µM.
As to `CCOc1cc(C(=O)N2CCC(N3CCCC3)CC2)ccc1Nc1cc2c(cn1)N(C)C(=O)c1ccccc1N2C` [Compound 46, 3-(2-Ethoxy-4-(4-(pyrrolidin-1-yl)piperidine-1-carbonyl)phenylamino)-5,11-dimethyl-5H-benzo[e]pyrido[3,4-b][1,4]diazepin-10(11H)-one], the Kd in assay [1] was 7500 nM; in assay [2], 3300 nM; at BRDT it was 169 nM; at BRD2, 55 nM. Besides, the EC50 in the assay on human PBMCs (setting [4]) was 2.52 µM; in the assay with human PBMCs (setting [5]) it was 2.14 µM; with human PBMCs (setting [6]), 0.63 µM; with human PBMCs (setting [7]) it was 1.65 µM; in the assay on human PBMCs (setting [8]), 3.12 µM; with human PBMCs (setting [9]), 5.15 µM. For the same compound, the EC50 in the assay with human PBMCs (setting [10]) is 2.07 µM; in the assay on human PBMCs (setting [11]), 4.21 µM; in the assay with human PBMCs (setting [12]), 0.467 µM; with human PBMCs (setting [13]), 0.713 µM; in the assay with human PBMCs (setting [14]), 3.12 µM; in the assay on human PBMCs (setting [15]), more than 10 µM. For the same compound, the EC50 is 0.104 µM with human PBMCs (setting [16]); 0.124 µM in the assay on human PBMCs (setting [17]); 3.27 µM in the assay with human PBMCs (setting [18]); more than 10 µM in the assay with human PBMCs (setting [19]); 3.16 µM in the assay on human PBMCs (setting [20]); 0.9 µM in the assay on human PBMCs (setting [21]). Also, the EC50 was more than 10 µM in the assay on human PBMCs (setting [22]); 0.181 µM in the assay on human PBMCs (setting [23]); more than 10 µM with human PBMCs (setting [24]); 4.77 µM in the assay with human PBMCs (setting [25]); more than 10 µM in the assay with human PBMCs (setting [26]); 0.143 µM in the assay on human PBMCs (setting [27]). The figures for the EC50 with human PBMCs (setting [28]) and in the assay on human PBMCs (setting [29]) were 8.07 µM and 4.14 µM, respectively. This compound had a pKd on WDR9 of less than 4.70.
Turning to `CCOc1cc(C(=O)N2CCC(N3CCN(C)CC3)CC2)ccc1Nc1cc2c(cn1)N(C)C(=O)c1ccccc1N2C` [Compound 61], the EC50 in assay [3] was determined as 3.69 µM.
The same measure, in the same setting: the value for `CCOc1cc(C(=O)N2CC[C@@H](N(C)C)C2)ccc1Nc1cc2c(cn1)N(C)C(=O)c1ccccc1N2C` [Compound 115] was 1.37 µM.
Regarding `CCOc1cc(C(=O)N[C@H]2CC[C@H](O)CC2)ccc1Nc1cc2c(cn1)N(C)C(=O)c1ccccc1N2C` [Compound T62], the Kd in assay [1] was found to be 1100 nM; in assay [2] it was 1200 nM; at BRDT, 397 nM; at BRD2 it was 93 nM. The pKd on WDR9 was less than 4.70.
